Data on two compounds can be found in patent US10729130B2, “Nematicidal compositions and methods of using them” (Eden Research plc, priority 2004, dated 2020).

The test system of one data set is Citrus nematodes. In words: Nematicidal effects of citral in soil, Citrus nematodes. Format: in vivo, citrus nematode. The method, then:
Methodology: Nematodes used for the analysis originated from commercial agricultural crop soils. Species of nematode included root-knot and citrus. Prior to commencement of each study the nematodes were counted and evaluated for viability. In each experiment soil samples were infected with only one species of nematode. Three measured quantities of soil (250 g) were placed into large PVC plastic containers.
Soil moisture was assessed by weighing a soil sample and then drying the sample in a drying oven. Soil moisture content was confirmed using a “Hydroscout” instrument. In all cases the moisture content measured by both methods was within the resolution of the instruments. By determining the water content of the soil it was possible to calculate the volume of terpene solution which would be diluted when mixed with the soil.
These dilutions were by volume not the more commonly used mass ratios. The reason for using volume dilutions was simply one of convenience enabling the use of a micropipette or cylinder to measure the terpene. The mass ratio of the ‘in soil’ and ‘in water’ solution could be simply calculated by multiplying the ppm of terpene by it's density (0.92 g/ml).
The terpene solution was added to each test tube containing a weighed sample of nematode infected soil. The terpene solution and soil were mixed by inverting the test tube several times. The test tubes containing the soil and terpene solution were left to stand in racks in the laboratory for 48 hours-72 hours depending on the survival of the untreated nematodes. In each experiment a control group was treated with distilled water. The % mortality (kill) rates in the treatment groups was compared with the control population.
The nematodes were extracted by “Sieving & mist extraction” (Ayoub, S. M. 1977) prior to being counted.
Criteria for Evaluation: Nematode counts were performed to determine the proportion of nematodes which survived and were killed in each treatment group.
The results are shown below on Table 17 to 19.

The test system of a further data set is Root Knot nematodes. In words: Nematicidal effects of citral in soil, Root Knot nematodes. Format: in vivo, root-knot nematode. The method, then: Methodology: Nematodes used for the analysis originated from commercial agricultural crop soils. Species of nematode included root-knot and citrus. Prior to commencement of each study the nematodes were counted and evaluated for viability. In each experiment soil samples were infected with only one species of nematode. Three measured quantities of soil (250 g) were placed into large PVC plastic containers. Soil moisture was assessed by weighing a soil sample and then drying the sample in a drying oven. Soil moisture content was confirmed using a “Hydroscout” instrument. In all cases the moisture content measured by both methods was within the resolution of the instruments. By determining the water content of the soil it was possible to calculate the volume of terpene solution which would be diluted when mixed with the soil. […] These dilutions were by volume not the more commonly used mass ratios. The reason for using volume dilutions was simply one of convenience enabling the use of a micropipette or cylinder to measure the terpene. The mass ratio of the ‘in soil’ and ‘in water’ solution could be simply calculated by multiplying the ppm of terpene by it's density (0.92 g/ml). The terpene solution was added to each test tube containing a weighed sample of nematode infected soil. The terpene solution and soil were mixed by inverting the test tube several times. […] In each experiment a control group was treated with distilled water. The % mortality (kill) rates in the treatment groups was compared with the control population. The nematodes were extracted by “Sieving & mist extraction” (Ayoub, S. M. 1977) prior to being counted. Criteria for Evaluation: Nematode counts were performed to determine the proportion of nematodes which survived and were killed in each treatment group. […] The results are shown below on Table 17 to 19. The experiment was performed once again, this time with the following changes: • Dose range of 125 ppm-750 ppm was used. • Glass tubes containing 150 g of soil were used as opposed to PVC tubes in previous experiments.

A further data set has as its system root-knot nematodes. The experiment in a line: Nematicidal activity of citral on root-knot nematodes (selectivity experiment). The settings on record: 250 ppm.
Data set [1] is described as follows: Xanthan gum as interstitial hydrocolloid: dispersion of dried encapsulated L-carvone particles when re-hydrated. Format: physicochemical. The settings on record: dispersion on re-hydration, SAF 1 g, L-carvone emulsion 1.1 g. The method, then: The following protocol was adopted to evaluate the effect of an interstitial hydrocolloid to increase dried hollow glucan particle encapsulated terpene formulations to disperse when hydrated. • SAF Mannan™ particles • 0.1% Tween 80 • L-carvone • Xanthan Gum—1% w/v in 0.1% Tween 80
The effect of increasing xanthan gum levels on dry hollow glucan particle encapsulated L-carvone dispersion in water was assessed by loading L-carvone into SAF Mannan by incubating 1.1 g of an L-carvone emulsion (L-carvone:water:surfactant ratio of 0.75:0.3:0.05) with 1 g SAF Mannan and 4.4 g 0.1% Tween 80 containing 0-1% xanthan gum as shown in Table 32.

Several values for one entry are separate records, joined by “and”; a condition that tells them apart may be missing. Equal entries are not always repeated.

Description for root-knot nematodes: Living saprophagus nematodes move rapidly in water. The control used was the nematodes in water alone.
The figures given are for the percentage of nematodes found to be dead upon microscopic examination and are the average of 2 replicates.

Turning to `CC(C)=CCCC(C)=CC=O` [Citral, citral], the Mean % killed in the data set with Citrus nematodes (first experiment (Table 16), 62.5 ppm, 8 replicates) is on record as −2.84%; with Citrus nematodes (first experiment (Table 16), 125 ppm, 8 replicates), 46.29%; in the data set with Citrus nematodes (first experiment (Table 16), 250 ppm, 8 replicates), 91.66%; with Citrus nematodes (first experiment (Table 16), 500 ppm, 8 replicates), 95.53%; with Citrus nematodes (repeated protocol (Table 19), 500 ppm, N 10) it was 99.9%; in the data set with Root Knot nematodes (first experiment (Table 15), soil, 62.5 ppm, 8 replicates), 18.87%. Further, the Mean % killed with Root Knot nematodes (first experiment (Table 15), soil, 125 ppm, 8 replicates) worked out at 4.34%; in the data set on Root Knot nematodes (first experiment (Table 15), soil, 250 ppm, 8 replicates) it was 23.66%; in the data set with Root Knot nematodes (first experiment (Table 15), soil, 500 ppm, 8 replicates), 67.10%; in the data set with Root Knot nematodes (repeated protocol (Table 18), soil, 500 ppm, N 10) it was 99.6%; in the data set with Root Knot nematodes (third experiment (Table 20), glass tubes, 150 g of soil, 125 ppm, N 8), 74.51%; in the data set on Root Knot nematodes (third experiment (Table 20), glass tubes, 150 g of soil, 250 ppm, N 8), 97.37%. The Mean % killed in the data set with Root Knot nematodes (third experiment (Table 20), glass tubes, 150 g of soil, 500 ppm, N 8) came out at 100%; in the data set on Root Knot nematodes (third experiment (Table 20), glass tubes, 150 g of soil, 750 ppm, N 8), 99.42%. For the same compound, the “% dead” value is 87% and 88% with root-knot nematodes (24 h); 100% in the data set on root-knot nematodes (48 h).

L-carvone: the “Visual Observations” value in data set [1] (0.1% Tween-80 0 g, 1% xanthan 4.4 g) is reported as “Finer Uniform”; in data set [1] (0.1% Tween-80 2.2 g, 1% xanthan 2.2 g), “Finer Uniform”; in data set [1] (0.1% Tween-80 3.3 g, 1% xanthan 1.1 g) it was “Finer Uniform”; in data set [1] (0.1% Tween-80 3.85 g, 1% xanthan 0.55 g), “Uniform”; in data set [1] (0.1% Tween-80 4.12 g, 1% xanthan 0.28 g), “Uniform”; in data set [1] (0.1% Tween-80 4.26 g, 1% xanthan 0.14 g) it was “Uniform”. The “Visual Observations” value in data set [1] (0.1% Tween-80 4.33 g, 1% xanthan 0.07 g) is given as “Uniform”; in data set [1] (0.1% Tween-80 4.4 g, 1% xanthan 0 g), “Large non-”.
